Literature values in PMC6114101 (International Journal for Parasitology: Drugs and Drug …, 2018).

Legend:
N. caninum = conditions: ref Ojo et al., 2014; Winzer et al., 2015; Müller et al., 2017a
[1] = ref Ojo et al., 2013
[2] = test system: human ether-a-go-go-related gene (hERG) ion channel; conditions: ref Vidadala et al., 2016

| excreted in urine [1] [%] | SMILES | activity against N. caninum in vitro (N. caninum) | hERG inhibition [2] |
| --- | --- | --- | --- |
| – | CCOc1ccc2cc(-c3nn(C(C)(C)C)c(N)c3C(N)=O)cnc2c1 [BKI-1517] | effective | – |
| 1 | CCOc1ccc2cc(-c3nn(CC4CCN(C)CC4)c4ncnc(N)c34)ccc2c1 [BKI-1294] | effective | potent |
